From paper PMC7613620, “Reaction hijacking of tyrosine tRNA synthetase as a whole-of-life-cycle antimalarial strategy” (Science (New York, N.Y.), 2022)

Assays:
[1] = molecular target: NEDD8-activating enzyme (NAE) (Homo sapiens, UniProt Q8TBC4); test: E1-E2 transthiolation HTRF assay, NAE; assay type: biochemical
Description: 592 E1-E2 Transthiolation Assays
593 An Homogeneous Time-Resolved Fluorescence (HTRF) enzyme assay was employed to evaluate
594 compound activity against ATG7 as previously described (11). In this assay, a Flag-tagged ATG8 homolog
595 (GABA type A receptor-associated protein; GABARAP) is activated by ATG7 and then transthiolated to a
596 GST-tagged E2 (ATG3). The product of the enzyme reaction, Flag-GABARAP-ATG3-GST, is quantified
597 by measuring FRET between Europium-Cryptate labelled monoclonal anti-Flag M2 (CisBio International,
598 Cat# 61FG2KLB) and PHYCOLINK goat anti-GST allophycocyanin (Prozyme, PJ252p1). The activation
599 and transthiolation of ubiquitin by Ubiquitin Activating Enzyme, activation and transthiolation of NEDD8
600 by NEDD8 Activating Enzyme. […]
606 Compounds were incubated with mature stage V gametocytes ([…], kind gift from Professor Chris Janse
607 at Leiden University Medical Center (LUMC), the Netherlands) for 48 hours in 384 well plates before
608 gamete formation was triggered by a drop in temperature and addition of xanthurenic acid. […]
611 Multiple data sets using different gametocyte cultures were collected on each of two separate days.
613 Activity against exoerythrocytic stages
614 Primary human hepatocytes (H1500.H15B+ Lot No. HC10-10 Cryopreserved human hepatocytes) […]

Caco2 permeability = assay type: in vitro ADME; conditions: human, Caco-2
H1650 = H1650 cell viability (ATP content); assay type: cell-based; conditions: Homo sapiens, NCI-H1650, read-out: H1650 IC50(72h); 72 h; ATG7-null cell line
Description: 574 H1650 is a human lung cancer derived ATG7-null cell line (49) that can be used to assess effects on targets
576 adenocarcinoma; bronchoalveolar carcinoma). Other cells lines used are: H460 (NCI-H460; human lung;
577 carcinoma; large cell lung cancer; ATCC: HTB-177); and HCT116 (human colon; colorectal carcinoma;
578 ATCC: CCL-247; Lot : 5056139). Each of the cell lines was received from the American Type Culture
579 Collection (ATCC) and passaged twice before freezing. Cells were cultured in the presence or absence of
580 inhibitors and cell viability was assessed by comparing the ATP content in compound-treated wells with
581 that in DMSO-treated wells as previously described (11). […]
585 37°C humidified incubator as adherent semi-confluent monolayers in complete Dulbecco’s Modified Eagle
586 Media (c-DMEM). DMEM (Gibco™, Thermo Fisher Scientific, Australia) was supplemented with 10%

HsYRS = molecular target: T1, HsYRS (Homo sapiens, UniProt P54577); test: Tyrosine acylation of cognate tRNATyr by HsYRS; assay type: biochemical; conditions: YRS 0.25 μM, ATP 10 μM, 37°C 1 h
T1 construct: made in house; host or cells: E. coli BL21(DE3), pET-11a
T1 sequence (P54577 1-364): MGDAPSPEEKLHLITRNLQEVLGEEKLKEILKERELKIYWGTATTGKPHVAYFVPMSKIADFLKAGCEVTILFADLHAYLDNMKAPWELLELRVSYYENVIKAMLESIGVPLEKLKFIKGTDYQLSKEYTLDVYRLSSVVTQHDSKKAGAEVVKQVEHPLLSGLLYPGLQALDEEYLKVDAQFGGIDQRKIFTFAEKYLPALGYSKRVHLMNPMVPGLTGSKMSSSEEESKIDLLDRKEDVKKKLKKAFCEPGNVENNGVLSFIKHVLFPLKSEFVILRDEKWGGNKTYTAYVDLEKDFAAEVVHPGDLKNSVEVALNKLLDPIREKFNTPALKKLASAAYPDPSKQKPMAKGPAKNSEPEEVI

[2] = tested on: eIF2α phosphorylation in P. falciparum; test: Western blot for phosphorylated-eIF2α; assay type: cell-based, Plasmodium falciparum
Description: Synchronous ring-stage YRScyt conditional knockdown line and the aptamer-regulatable control
700 the drug plate. Lowest drug treatment and a lethal dose of chloroquine (200 nM) served as reference
Two guide RNAs (gRNA1: […] and gRNA2:
Ring-stage P. falciparum parasites (Dd2 strain) at 10%
Using a modification of a published procedure (14), the
722 cells were labelled with O-propargyl-puromycin (OPP; 4 µM) for 1 h, washed 3x (PBS +3% serum) and
Flow cytometry was performed
(§1) 730 hematocrit and 5% parasitemia. The RBC pellet was washed 3 x in PBS + cOmplete. Cells were centrifuged
The wash with PBS + cOmplete and
The pellet was resuspended in Bolt LDS sample
The samples were vortexed for 10 min at room temperature.
Secondary antibodies: goat
740 anti-rabbit IgG-peroxidase (Sigma-Aldrich-A0545; 1:20 000), goat anti-mouse IgG-peroxidase (Chemicon-
Chemiluminescence was detected using the Bio-Rad ChemiDocTM MP imaging
For the human mature YRS construct,
The YRS sequences were codon optimized for E. coli,
The vector was transformed into
PfYRS, PfYRSS234C and HsYRS were induced
Cell pellets were resuspended in 40 mL lysis
Cells were lysed by sonication (Microtip, QSonica)
The supernatant was applied to a 5
757 mL HisTrap HP column (GE Healthcare) and washed with 50 mL binding buffer containing 50 mM Tris-
His-YRS was eluted using a 0-500 mM
The eluted His-YRS was dialyzed overnight at 4°C
760 against 50 mM Tris-HCl, pH 8, 500 mM NaCl, 30 mM imidazole, 1 mM TCEP with the addition of His-
Cleaved His tags from His-YRS and TEV
YRS was further purified by gel filtration using a HiLoad 16/600 Superdex 200 column (GE

[3] = tested on: protein translation in P. falciparum (Cam3.II-rev) schizonts; test: Protein translation assay (O-propargyl-puromycin incorporation); assay type: cell-based, Plasmodium falciparum; conditions: Plasmodium falciparum, 3 h, read-out: IC50 (Translation), schizont stage Cam3.II-rev, 3 h exposure, OPP incorporation
Description: 723 then fixed for 10 minutes (4% formaldehyde/0.02% glutaraldehyde in PBS). The click reaction was
724 performed for 1 h in the presence of CuSO4 (0.1 mM), THPTA (0.5 mM) and sodium ascorbate (5 mM) to
725 bring about azide-alkyne cycloaddition to Alexa Fluor 488 azide (0.1 µM). Flow cytometry was performed
726 using the FITC and Cy™5.5 channels to detect the Alexa Fluor 488 and PI, respectively.
729 Cam 3.II_Rev (25) trophozoite-infected RBCs (25-30 h p.i.) were incubated with inhibitor for 3 h at 10%
as §1
731 at 380 x g for 5 min and the pelleted cells lysed by resuspension in PBS + 0.05% saponin for 5 min on ice.

NEDD8-activating enzyme (NAE), sequence (Q8TBC4 whole entry): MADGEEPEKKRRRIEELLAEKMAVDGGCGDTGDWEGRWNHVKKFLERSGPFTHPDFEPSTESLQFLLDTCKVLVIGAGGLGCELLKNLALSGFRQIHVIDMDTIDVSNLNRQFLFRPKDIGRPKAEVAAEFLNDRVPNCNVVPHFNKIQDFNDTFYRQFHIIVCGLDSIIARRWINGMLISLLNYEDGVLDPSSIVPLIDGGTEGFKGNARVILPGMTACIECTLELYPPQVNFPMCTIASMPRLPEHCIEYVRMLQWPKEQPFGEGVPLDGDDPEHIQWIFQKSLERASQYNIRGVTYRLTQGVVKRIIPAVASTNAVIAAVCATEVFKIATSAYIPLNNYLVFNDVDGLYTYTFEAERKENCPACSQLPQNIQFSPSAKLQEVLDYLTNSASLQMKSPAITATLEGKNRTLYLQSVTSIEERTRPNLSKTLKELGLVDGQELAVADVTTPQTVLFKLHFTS
NEDD8-activating enzyme (NAE), sequence (Q13564 whole entry partner): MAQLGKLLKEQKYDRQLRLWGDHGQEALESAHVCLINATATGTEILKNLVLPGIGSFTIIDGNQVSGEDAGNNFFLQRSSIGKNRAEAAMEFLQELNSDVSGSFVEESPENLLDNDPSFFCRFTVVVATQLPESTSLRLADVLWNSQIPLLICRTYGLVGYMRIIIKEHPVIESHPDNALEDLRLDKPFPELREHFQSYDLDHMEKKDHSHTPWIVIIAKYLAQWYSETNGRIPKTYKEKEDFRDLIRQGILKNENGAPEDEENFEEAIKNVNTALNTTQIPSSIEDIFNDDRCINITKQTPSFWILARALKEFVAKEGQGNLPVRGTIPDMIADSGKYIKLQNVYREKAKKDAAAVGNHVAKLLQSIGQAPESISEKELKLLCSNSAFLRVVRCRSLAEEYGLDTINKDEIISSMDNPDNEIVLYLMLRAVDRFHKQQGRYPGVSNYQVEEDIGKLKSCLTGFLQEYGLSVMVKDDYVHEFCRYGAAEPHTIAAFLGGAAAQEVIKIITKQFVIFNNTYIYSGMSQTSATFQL

Nc1ncnc2c1c(OC(F)F)nn2[C@@H]1O[C@H](COS(N)(=O)=O)[C@@H](O)[C@H]1O [ML901]
IC50 [1]: > 1 µM | Papp A→B (Caco2 permeability; A to B): 7 nm/s | Papp B→A (Caco2 permeability; B to A): 8.2 nm/s | IC50 (H1650): 10.7 µM | IC50 (HsYRS): > 500 µM | eIF2α phosphorylation ([2]; eIK1 knockout parasites): does not result in eIF2α phosphorylation | eIF2α phosphorylation ([2]; wildtype P. falciparum cultures): triggers eIF2α phosphorylation | IC50 [3]: 0.065 µM
